Test results published in patent US20160184274A1, “Methods for inhibiting mesenchymal phenotype after epithelial-to-mesenchymal transition” (Fibrostatin, S.L., priority 2014, published 2016).
“Also recorded” adds a separate entry of the source.

Experiments:
[1] = system: 4T1 mouse breast cancer cells; assay: Murine breast cancer 4T1 model; format: in vivo, Balb/c mice
Procedure: FIG. 10. […] Control, n=43; T12, n=18. FIG. 11. T12 targets circulating 4T1 cancer cells. A, Balb/c female mice were inoculated with 4T1 mouse breast cancer cells at mammary fat pads. At day 20 after cell inoculation mice were subjected to PET analysis for metastases detection. White arrows denote metastatic foci at the spinal cord. B, Balb/c female from A were either left untreated (Control), or were treated with T12 in drinking water from day 20. At day 35 blood was seeded in the presence of 6-thioguanine and circulating 4T1 cells selected and further cultured. Shown are phase contrast images of the resulting cultures acquired with an inverted microscope. […] C, circulating 4T1 cells recovered as in B and 4T1 cells were cultured in standard 2D cultures and subjected to RNA extraction, and RNA samples were analyzed by RT-qPCR. Shown are the relative quantities (RQ) of the indicated mRNAs of circulating 4T1 cells using levels from 4T1 cells as reference. D, the cultures in C were treated with the indicated concentrations of T12 for 24 h. Dead cells in culture media were quantified by measuring cell size using an automated cell counter (Moxi Z, Orflo). The number of dead cells in the culture media of the respective untreated cells (−) was used as reference. E, circulating 4T1 cells recovered as in B or 4T1 cells were cultured in ultra-low binding plates and treated with the indicated concentrations of T12 for 9 days, cells were lysed and analyzed by Western blot using antibodies specific for activated caspase 3. The levels of GAPDH were determined for loading control purposes. For other assays, 10^4 4 T1 cells were suspended in 10 μl PBS and subcutaneously injected into the 4th mammary fat pad of 4-week-old Balb/c female mice, and either left untreated or treated since the inoculation day with T12 (12 mg/kg/day in drinking water). Primary tumors formed and dimensions were periodically measured with a caliper.

4T1 cells = assay: Cell death / caspase 3 activation in 4T1 cells; format: cell-based, Mouse; settings: same T12 concentrations as for circulating 4T1 cells; FIG. 11D-E
Procedure: FIG. 11. T12 targets circulating 4T1 cancer cells. A, Balb/c female mice were inoculated with 4T1 mouse breast cancer cells at mammary fat pads. At day 20 after cell inoculation mice were subjected to PET analysis for metastases detection. White arrows denote metastatic foci at the spinal cord. B, Balb/c female from A were either left untreated (Control), or were treated with T12 in drinking water from day 20. At day 35 blood was seeded in the presence of 6-thioguanine and circulating 4T1 cells selected and further cultured. Shown are phase contrast images of the resulting cultures acquired with an inverted microscope. […] C, circulating 4T1 cells recovered as in B and 4T1 cells were cultured in standard 2D cultures and subjected to RNA extraction, and RNA samples were analyzed by RT-qPCR. Shown are the relative quantities (RQ) of the indicated mRNAs of circulating 4T1 cells using levels from 4T1 cells as reference. […] Dead cells in culture media were quantified by measuring cell size using an automated cell counter (Moxi Z, Orflo). […] E, circulating 4T1 cells recovered as in B or 4T1 cells were cultured in ultra-low binding plates and treated with the indicated concentrations of T12 for 9 days, cells were lysed and analyzed by Western blot using antibodies specific for activated caspase 3. The levels of GAPDH were determined for loading control purposes. […]

Structure (SMILES): COc1ccc(-c2ccc(-c3cccc(C)c3)c(C)c2)c(CCC(=O)O)c1 [T12, 3-[4″-methoxy-3,2′-dimethyl-(1,1′;4′,1″)terphenyl-2″-yl] propionic acid]
- tumor volume (anti-tumor activity) ([1]; T12 12 mg/kg/day in drinking water from inoculation, FIG. 10B, 12 mg/kg/day): displayed anti-tumor activity; also recorded: differences are statistically significant
- superficial metastasis per lung ([1]; T12 12 mg/kg/day in drinking water, day 25, FIG. 10C, 12 mg/kg/day): inhibited metastasis formation; also recorded: Differences are statistically significant
- recovery of circulating 4T1 tumor cells from blood ([1]; T12 in drinking water from day 20, blood seeded at day 35 with 6-thioguanine, FIG. 11B): impeded the isolation of circulating 4T1 tumor cells; also recorded: could not be recovered
- sensitivity to T12: dead cells and activated caspase 3 (4T1 cells): little effect on 4T1 cells
